Results from US11252962B2, “Cyclopropylpyridyl group-containing benzimidazole compound or salt thereof, agricultural and horticultural insecticide comprising the compound or the salt, and method for using the insecticide” (NIHON NOHYAKU CO., LTD., priority 2017, dated 2022).

Key:
Myzus persicae = test: Test for control efficacy on Myzus persicae; type: in vivo; settings: 144 h, foliar application to potted Chinese cabbage, 6 days after application, read-out: control efficacy (control rate), activity level
Text: Test for Control Efficacy on Myzus persicae Chinese cabbage plants were planted in plastic pots (diameter: 8 cm, height: 8 cm), Green peach aphids (M. persicae) were propagated on the plants, and the number of surviving Green peach aphids in each pot was counted. […] The agrochemical dispersions were applied to the foliage of the potted Chinese cabbage plants. After the plants were air-dried, the pots were kept in a greenhouse. At 6 days after the foliar application, the number of surviving Green peach aphids on the Chinese cabbage plant in each pot was counted, the control rate was calculated according to the formula shown below, and the control efficacy was evaluated according to the criteria shown below. Control rate=100−{(T×Ca)/(Ta×C)}×100 [Math. 1] Ta: the number of survivors before the foliar application in a treatment plot T: the number of survivors after the foliar application in a treatment plot Ca: the number of survivors before the foliar application in a non-treatment plot C: the number of survivors after the foliar application in a non-treatment plot Criteria A: the control rate is 100%. […] C: the control rate is 80 to 89%.

Plutella xylostella = test: Insecticidal test on Plutella xylostella; type: in vivo; settings: 144 h, Chinese cabbage seedlings with laid eggs dipped about 30 seconds, 6 days after dip treatment, 25° C., read-out: insecticidal efficacy (corrected mortality rate), activity level
Method: Insecticidal Test on Plutella xylostella
Adults of P. xylostella were released onto Chinese cabbage seedlings and allowed to lay eggs thereon. […] After air-dried, the seedlings were kept in a thermostatic chamber at 25° C. […] This test was conducted in triplicate using 10 adults of P. xylostella per plot. Corrected mortality rate (%)=100×(Number of hatched larvae in a non-treatment plot−Number of hatched larvae in a treatment plot)/Number of hatched larvae in a non-treatment plot [Math. 3]

Laodelphax striatellus = test: Insecticidal test on Laodelphax striatellus; type: in vivo; settings: 192 h, rice seedlings dipped 30 seconds, 3rd-instar larvae, 8 days after inoculation, read-out: insecticidal efficacy (corrected mortality rate), activity level
Method: Insecticidal Test on Laodelphax striatellus
Rice plant seedlings (variety: Nihonbare) were dipped in the agrochemical dispersions for 30 seconds. After air-dried, each seedling was put into a separate glass test tube and inoculated with ten 3rd-instar larvae of L. striatellus, and then the glass test tubes were capped with cotton plugs. At 8 days after the inoculation, the numbers of surviving larvae and dead larvae were counted, the corrected mortality rate was calculated according to the formula shown below, and the insecticidal efficacy was evaluated according to the criteria shown below. Corrected mortality rate (%)=100×(Survival rate in a non-treatment plot−Survival rate in a treatment plot)/Survival rate in a non-treatment plot [Math. 2] Corrected Mortality Rate A: the corrected mortality rate is 100%.

Ctenocephalides felis = test: Parasiticidal test on Ctenocephalides felis; type: in vivo; settings: 50 ppm in bovine blood, adults, artificial feeding system 35° C., 24 hours after treatment, read-out: corrected mortality rate
Method: Parasiticidal Test on Ctenocephalides felis
Newly-emerged adults of C. felis were placed into test cages (10 adults per test cage), and the test cages were maintained at 35° C. in an artificial feeding system. At 24 hours after agrochemical treatment, the numbers of surviving and dead adults were counted, and the corrected mortality rate was calculated according to the formula shown below. Corrected mortality rate (%)=100×(Survival rate in a negative control group−Survival rate in a treatment group)/Survival rate in a negative control group [Math.

Rhipicephalus sanguineus = test: Parasiticidal test on Rhipicephalus sanguineus; type: in vivo; settings: treated filter paper, nymphs, 27° C., 48 hours after treatment, read-out: corrected mortality rate
Method: Parasiticidal Test on Rhipicephalus sanguineus
The diluted formulations were applied dropwise onto filter paper pieces placed in separate vials. The filter paper pieces were dried. Ten nymphs of R. sanguineus were placed into each vial and maintained at 27° C. with 80% humidity under a 12L12D light-dark cycle (L: light time, D: dark time). At 48 hours after agrochemical treatment, the numbers of surviving and dead nymphs were counted, and the corrected mortality rate was calculated according to the formula of Math. 4.

Haemonchus contortus = test: Parasiticidal test on Haemonchus contortus (larval motility); settings: 1st-instar larvae, 96-well plates, 27° C., 96 hours, read-out: percent inhibition in motility
Text: Parasiticidal Test on Haemonchus contortus
Eggs of H. contortus were collected from feces of a goat and hatched in water. […] Percent inhibition in motility (%)=100×(Average motility in negative control wells−Average motility in treated wells)/Average motility in negative control wells [Math. 5]

| SMILES | pest or weed control at 500 ppm (Myzus persicae) [%] | mortality at 500 ppm (Plutella xylostella) [%] | mortality at 500 ppm (Laodelphax striatellus) [%] | mortality at 50 ppm (Ctenocephalides felis) [%] | mortality at 100 ppm (Rhipicephalus sanguineus) [%] | inhibition at 100 ppm (Haemonchus contortus) [%] |
| --- | --- | --- | --- | --- | --- | --- |
| CCSc1cc(C2CC2)cnc1-c1nc2cc(SC(F)(F)F)ccc2n1C [Compound 1-1, 2-(3-ethylthio-5-cyclopropylpyridin-2-yl)-1-methyl-5-(trifluoromethylthio)benzimidazole] | 100 | 100 | 100 | – | – | – |
| CCS(=O)(=O)c1cc(C2CC2)cnc1-c1nc2cc(SC(F)(F)F)ccc2n1C [Compound 1-3, 2-(3-ethylsulfonyl-5-cyclopropylpyridin-2-yl)-1-methyl-5-(trifluoromethylthio)benzimidazole] | 100 | 100 | 100 | ≥ 90 | ≥ 90 | ≥ 50 |
| CCS(=O)(=O)c1cc(C2CC2)cnc1-c1nc2cc(OC(F)(F)F)ccc2n1C [Compound 1-27, 2-(5-cyclopropyl-3-ethylsulfonyl-pyridin-2-yl)-1-methyl-5-trifluoromethoxybenzimidazole] | 100 | 100 | 100 | – | – | – |
| CCS(=O)(=O)c1cc(C2CC2)cnc1-c1nc2cc(S(=O)(=O)C(F)(F)F)ccc2n1C [Compound 1-5, 2-(3-ethylsulfonyl-5-cyclopropylpyridin-2-yl)-1-methyl-5-(trifluoromethylsulfonyl)benzimidazole] | 100 | 100 | 100 | – | – | – |
| CCS(=O)(=O)c1cc(C2CC2)cnc1-c1nc2cc([S+]([O-])C(F)(F)F)ccc2n1C (stereo not drawn) [Compound 1-4, 2-(3-ethylsulfonyl-5-cyclopropylpyridin-2-yl)-1-methyl-5-(trifluoromethylsulfinyl)benzimidazole] | 100 | 100 | 100 | ≥ 90 | ≥ 90 | ≥ 50 |
| CC[S+]([O-])c1cc(C2CC2)cnc1-c1nc2cc(SC(F)(F)F)ccc2n1C (stereo not drawn) [Compound 1-2, 2-(3-ethylsulfinyl-5-cyclopropylpyridin-2-yl)-1-methyl-5-(trifluoromethylthio)benzimidazole] | 100 | 100 | 100 | – | – | – |
| CCS(=O)(=O)c1cc(C2(C#N)CC2)cnc1-c1nc2cc(OC(F)(F)F)ccc2n1C [Compound 1-85, 2-(5-(1-cyanocyclopropyl)-3-ethylsulfonyl-pyridin-2-yl)-1-m ethyl-5-trifluoromethoxybenzimidazole] | 100 | 100 | 100 | – | – | – |
| CCSc1cc(C2(C#N)CC2)cnc1-c1nc2cc(SC(F)(F)F)ccc2n1C [Compound 1-6] | 100 | 100 | 100 | – | – | – |
| CCSc1cc(C2(C#N)CC2)cnc1-c1nc2cc(OC(F)(F)F)ccc2n1C [Compound 1-83, 2-(5-(1-cyanocyclopropyl)-3-ethylthiopyridin-2-yl)-1-methyl-5-trifluoromethoxybenzimidazole] | 100 | 100 | 100 | – | – | – |
